Experiments:
[1] = test system: DLD-1 (Colorectal cancer cell line); assay: cell proliferation inhibitory activity, WST-8 (Test Example 2); assay type: cell-based; settings: Homo sapiens, 48 h, DLD-1, 2 days with compound
Excerpt: (§1) Compounds RS1 to RS7 obtained in Synthesis Examples 1 to 7, and M-COPA synthesized in the same manner as in Synthesis Example 1 in Patent Document 1 were examined for cell proliferation inhibitory activity against human cultured cancer cells. The cancer cells used were eight human cancer cell lines (one skin cancer cell line, one ovarian cancer cell line, one prostate cancer cell line, two lung adenocarcinoma cell lines, one colorectal cancer cell line, two breast adenocarcinoma cell lines). The cancer cells of each type were seeded on a 96-well plate and cultured for 2 days, and cultured for 2 days with addition of serially diluted products of the compounds, and the cell proliferation was then measured by colorimetry with a water-soluble tetrazolium salt (WST-8). Thereafter, 50% cell proliferation inhibitory concentrations (GI50) were calculated from the cell proliferation curves.

[2] = test system: DU-145 (Prostate cancer cell line); assay: as above; assay type: cell-based; settings: Homo sapiens, 48 h, DU-145, 2 days with compound
Excerpt: as §1

[3] = test system: H1650 (Lung adenocarcinoma cell line); assay: as above; assay type: cell-based; settings: Homo sapiens, NCI-H1650, 48 h; H1650, 2 days with compound, WST-8, Table 2
Excerpt: as §1

[4] = test system: H2228 (Lung adenocarcinoma cell line); assay: as above; assay type: cell-based; settings: Homo sapiens, NCI-H2228, 48 h; H2228, 2 days with compound, WST-8, Table 2
Excerpt: as §1

[5] = test system: Hs578t (Breast adenocarcinoma cell line); assay: as above; assay type: cell-based; settings: Homo sapiens, Hs-578T, 48 h, 2 days with compound
Excerpt: as §1

[6] = test system: Hs925t (Skin cancer cell line); assay: as above; assay type: cell-based; settings: Homo sapiens, 48 h, 2 days with compound
Excerpt: as §1

[7] = test system: MCF-7 (Breast adenocarcinoma cell line); assay: as above; assay type: cell-based; settings: Homo sapiens, MCF7, 48 h, MCF-7, 2 days with compound
Excerpt: as §1

[8] = test system: SK-OV3 (Ovarian cancer cell line); assay: as above; assay type: cell-based; settings: Homo sapiens, SK-OV-3, 48 h, SK-OV3, 2 days with compound
Excerpt: as §1

GIST-R9 cells = assay: cell proliferation inhibitory activity, ATP production (Test Example 1); assay type: cell-based, human; settings: for IC50: Homo sapiens, 48 h, GIST-R9 cells (KIV^Δ560-578/D820V, imatinib-resistant), cultured 2 days with compound, ATP production, n=3; for inhibition of cell proliferation (in words): GIST-R9 cells, FIG. 2
Excerpt: (§2) Compounds RS1, RS2, and RS5 obtained in Synthesis Examples 1, 2, and 5, and M-COPA synthesized in the same manner as in Synthesis Example 1 in Patent Document 1 were examined for cell proliferation inhibitory activity against human cultured cancer cells with KIT tyrosine kinase mutation. The human cultured cancer cells used were GIST-T1 cells (KIT^Δ560-578. imatinib-sensitive) and GIST-R9 cells (KIV^Δ560-578/D820V, imatinib-resistant) as gastrointestinal stromal tumor cell lines, and HMC-1.2 cells (KIT^V560G/D816V, imatinib-resistant) as a mast cell leukemia cell line. The cancer cells of each type were seeded on a 96-well plate and cultured overnight, and cultured for 2 days with addition of serially diluted products of the compounds, and the cell proliferation was then measured by quantifying the ATP production (n=3). FIG. 1 to FIG. 3 show the cell proliferation curves for the GIST-T1 cells, GIST-R9 cells, and HMC-1.2 cells.

GIST-T1 cells = assay: as above; assay type: cell-based, human; settings: for IC50: Homo sapiens, GISTT1, 48 h, GIST-T1 cells (KIT^Δ560-578, imatinib-sensitive), cultured 2 days with compound, ATP production, n=3; for inhibition of cell proliferation (in words): GIST-T1 cells, FIG. 1
Excerpt: as §2

HMC-1.2 cells = assay: as above; assay type: cell-based, human; settings: for IC50: Homo sapiens, 48 h, HMC-1.2 cells (KIT^V560G/D816V, imatinib-resistant), cultured 2 days with compound, ATP production, n=3; for inhibition of cell proliferation (in words): HMC-1.2 cells, FIG. 3
Excerpt: as §2

[9] = test system: H1650 (Lung adenocarcinoma cell line); assay: cell proliferation inhibitory activity, WST-8 (Test Example 3); assay type: cell-based; settings: Homo sapiens, NCI-H1650, 48 h; H1650, 2 days with compound, WST-8, Table 3
Experimental: (§3) Compounds RS8 to RS10 obtained in Synthesis Examples 8 to 10 were examined for cell proliferation inhibitory activity against human cultured cancer cells. The cancer cells used were two human lung adenocarcinoma cell lines and one human lung squamous cell carcinoma cell line. The cancer cells of each type were seeded on a 96-well plate and cultured for 2 days, and cultured for 2 days with addition of serially diluted products of the compounds, and the cell proliferation was then measured by colorimetry with a water-soluble tetrazolium salt (WST-8). Thereafter, 50% cell proliferation inhibitory concentrations (GI50) were calculated from the cell proliferation curves.

[10] = test system: H2228 (Lung adenocarcinoma cell line); assay: as above; assay type: cell-based; settings: Homo sapiens, NCI-H2228, 48 h; H2228, 2 days with compound, WST-8, Table 3
Experimental: as §3

[11] = test system: H226 (Lung squamous cell carcinoma cell line); assay: as above; assay type: cell-based; settings: Homo sapiens, NCI-H226, 48 h; H226, 2 days with compound, WST-8, Table 3
Experimental: as §3

Compound	GI50 [1] [nM]	GI50 [2] [nM]	GI50 [3] [nM]	GI50 [4] [nM]	GI50 [5] [nM]	GI50 [6] [nM]	GI50 [7] [nM]	GI50 [8] [nM]	GI50 [9] [nM]	GI50 [10] [nM]	GI50 [11] [nM]	IC50 (GIST-R9 cells) [nM]	IC50 (GIST-T1 cells) [nM]	IC50 (HMC-1.2 cells) [nM]	inhibition of cell proliferation (in words) (GIST-R9 cells)	inhibition of cell proliferation (in words) (GIST-T1 cells)	inhibition of cell proliferation (in words) (HMC-1.2 cells)
C[C@H]1[C@@H]2[C@@H](/C=C/C=C(\Br)C(=O)NCc3cccnc3)[C@@H](C)C=C[C@H]2CC[C@@H]1O [RS7, (2Z,4E)-2-Bromo-5-((1′S,2′S,4′aR,7′S,8′S,8′aS)-7′-hydroxy-2′,8′-dimethyl-1′,2′,4′a,5′,6′,7′,8′,8′a-octahydronaphthalen-1′-yl)-N-(pyridin-3″-ylmethyl)penta-2,4-dienamide]	30	300	100	1000	10	30	1000	50	–	–	–	–	–	–	–	–	–
C/C(=C\C=C\[C@@H]1[C@H]2[C@H](C)[C@@H](O)[C@H](C)C[C@@H]2C=C[C@@H]1C)C(=O)NCc1cccnc1 [M-COPA, 2-methylcoprophilinamide, reference compound]	30	100	80	40	40	50	350	30	–	–	–	528 ± 59	347 ± 21	86 ± 9	–	–	–
C[C@@H]1[C@@H](O)[C@H](C)C[C@@H]2C=C[C@H](C)[C@H](/C=C/C=C(\Br)C(=O)NCc3cocn3)[C@@H]12 [RS3, (2Z,4E)-2-Bromo-5-((1′S,2′S,4′aR,6′R,7′S,8′S,8′aS)-7′-hydroxy-2′,6′,8′-trimethyl-1′,2′,4′a,5′,6′,7′,8′,8′a-octahydronaphthalen-1′-yl)-N-(oxazol-4″-ylmethyl)penta-2,4-dienamide]	30	200	80	50	3	30	300	30	–	–	–	–	–	–	–	–	–
C[C@@H]1[C@@H](O)[C@H](C)C[C@@H]2C=C[C@H](C)[C@H](/C=C/C=C(\Br)C(=O)OCc3ccccn3)[C@@H]12 [RS10, Pyridin-2″-ylmethyl (2Z,4E)-2-bromo-5-((1′S,2′S,4′aR,6′R,7′S,8′S,8′aS)-7′-hydroxy-2′,6′,8′-trimethyl-1′,2′,4′a,5′,6′,7′,8′,8′a-octahydronaphthalen-1′-yl)penta-2,4-dienoate]	–	–	–	–	–	–	–	–	500	700	300	–	–	–	–	–	–
C[C@@H]1[C@@H](O)[C@H](C)C[C@@H]2C=C[C@H](C)[C@H](/C=C/C=C(\Br)C(=O)NCc3cnco3)[C@@H]12 [RS1, (2Z,4E)-2-Bromo-5-((1′S,2′S,4′aR,6′R,7′S,8′S,8′aS)-7′-hydroxy-2′,6′,8′-trimethyl-1′,2′,4′a,5′,6′,7′,8′,8′a-octahydronaphthalen-1′-yl)-N-(oxazol-5″-ylmethyl)penta-2,4-dienamide]	3	40	5	10	3	1	30	5	–	–	–	363	268	50	in a concentration-dependent manner	in a concentration-dependent manner	in a concentration-dependent manner

Continued, in another order:

GI50 [1] [nM]	GI50 [2] [nM]	GI50 [3] [nM]	GI50 [4] [nM]	GI50 [5] [nM]	GI50 [6] [nM]	GI50 [7] [nM]	GI50 [8] [nM]	GI50 [9] [nM]	GI50 [10] [nM]	GI50 [11] [nM]	Compound	IC50 (GIST-R9 cells) [nM]	IC50 (GIST-T1 cells) [nM]	IC50 (HMC-1.2 cells) [nM]	inhibition of cell proliferation (in words) (GIST-R9 cells)	inhibition of cell proliferation (in words) (GIST-T1 cells)	inhibition of cell proliferation (in words) (HMC-1.2 cells)
–	–	–	–	–	–	–	–	300	300	40	C[C@@H]1[C@@H](O)[C@H](C)C[C@@H]2C=C[C@H](C)[C@H](/C=C/C=C(\Br)C(=O)NCc3ccccn3)[C@@H]12 [RS8, (2Z,4E)-2-Bromo-5-((1′S,2′S,4′aR,6′R,7′S,8′S,8′aS)-7′-hydroxy-2′,6′,8′-trimethyl-1′,2′,4′a,5′,6′,7′,8′,8′a-octahydronaphthalen-1′-yl)-N-(pyridin-2″-ylmethyl)penta-2,4-dienamide]	–	–	–	–	–	–
40	300	70	70	30	10	500	40	–	–	–	C[C@@H]1[C@@H](O)[C@H](C)C[C@@H]2C=C[C@H](C)[C@H](/C=C/C=C(\Br)C(=O)NCc3nccs3)[C@@H]12 [RS4, (2Z,4E)-2-Bromo-5-((1′S,2′S,4′aR,6′R,7′S,8′S,8′aS)-7′-hydroxy-2′,6′,8′-trimethyl-1′,2′,4′a,5′,6′,7′,8′,8′a-octahydronaphthalen-1′-yl)-N-(thiazol-2″-ylmethyl)penta-2,4-dienamide]	–	–	–	–	–	–
40	50	100	100	30	3	100	5	–	–	–	C[C@H]1[C@@H]2[C@@H](/C=C/C=C(\Br)C(=O)NCc3cncs3)[C@@H](C)C=C[C@H]2CC[C@@H]1O [RS6, (2Z,4E)-2-Bromo-5-((1′S,2′S,4′aR,7′S,8′S,8′aS)-7′-hydroxy-2′,8′-dimethyl-1′,2′,4′a,5′,6′,7′,8′,8′a-octahydronaphthalen-1′-yl)-N-(thiazol-5″-ylmethyl)penta-2,4-dienamide]	–	–	–	–	–	–
1	10	30	40	30	0.3	30	3	–	–	–	C[C@@H]1[C@@H](O)[C@H](C)C[C@@H]2C=C[C@H](C)[C@H](/C=C/C=C(\Br)C(=O)NCc3cncs3)[C@@H]12 [RS2, (2Z,4E)-2-Bromo-5-((1′S,2′S,4′aR,6′R,7′S,8′S,8′aS)-7′-hydroxy-2′,6′,8′-trimethyl-1′,2′,4′a,5′,6′,7′,8′,8′a-octahydronaphthalen-1′-yl)-N-(thiazol-5″-ylmethyl)penta-2,4-dienamide]	169	128	37	in a concentration-dependent manner	in a concentration-dependent manner	in a concentration-dependent manner
0.3	10	50	30	30	0.1	80	1	–	–	–	C[C@@H]1[C@@H](O)[C@H](C)C[C@@H]2C=C[C@H](C)[C@H](/C=C/C=C(\Br)C(=O)NCc3cccnc3)[C@@H]12 [RS5, (2Z,4E)-2-Bromo-5-((1′S,2′S,4′aR,6′R,7′S,8′S,8′aS)-7′-hydroxy-2′,6′,8′-trimethyl-1′,2′,4′a,5′,6′,7′,8′,8′a-octahydronaphthalen-1′-yl)-N-(pyridin-3″-ylmethyl)penta-2,4-dienamide]	292	169	42	in a concentration-dependent manner	in a concentration-dependent manner	in a concentration-dependent manner
